Test results from ChEMBL document CHEMBL5331052, “Discovery of a novel water-soluble, rapid-release triptolide prodrug with improved drug-like properties and high efficacy in human acute myeloid leukemia” (Eur J Med Chem, 2022).
Values belong to the molecule of their own block, whether it stands above or below them. The source made the active and inactive calls. The rule behind the calls is not given here.

What was measured:
[1] = Prodrug conversion in Sprague-Dawley rat plasma assessed as triptolide release at 500 ng/ml measured after 8 hrs by UPLC-MS/MS analysis; type: ADME, cell-free
[2] = tested on: MV4-11; assay: Antitumor activity against human MV4-11 cells xenografted in BALB/c nude mouse assessed as tumor growth inhibition at 0.5 mg/kg, po measured once every 2 days for 20 days relative to control; type: functional; details: MV4-11, 480 h, time 20 day, read-out: TGI
[3] = tested on: MV4-11; assay: Antitumor activity against human MV4-11 cells xenografted in BALB/c nude mouse assessed as tumor growth inhibition at 1 mg/kg, po measured once every 2 days for 20 days relative to control; type: functional; details: MV4-11, 480 h, time 20 day, read-out: TGI
[4] = Chemical stability of the compound in water assessed as parent compound remaining at 2 mg/ml measured immediately by HPLC analysis; type: physicochemical; details: read-out: Stability
[5] = Aqueous solubility of compound at 1 to 10 mg/ml by HPLC analysis; type: physicochemical; details: water; dose 1-10 mg/ml
[6] = Chemical stability of the compound in water assessed as parent compound remaining at 2 mg/ml measured after 4 hrs by HPLC analysis; type: physicochemical; details: read-out: Stability
[7] = Prodrug conversion in Sprague-Dawley rat plasma assessed as triptolide release at 50 ug/ml measured after 30 mins by HPLC analysis; type: ADME, cell-free; details: 0.5 h, dose 50 µg/ml
[8] = Prodrug conversion in human plasma assessed as triptolide release at 50 ug/ml measured after 45 mins by HPLC analysis; type: ADME, cell-free; details: 0.75 h, dose 50 µg/ml
[9] = Prodrug conversion in human plasma assessed as triptolide release at 1 mg/ml measured after 1 hrs by HPLC analysis; type: ADME, cell-free
[10] = Prodrug conversion in human plasma assessed as triptolide release at 50 to 5000 ng/ml measured for 1 hrs by HPLC analysis; type: ADME, cell-free; details: dose 50-5000 ng/ml
[11] = Prodrug conversion in human plasma assessed as triptolide release at 500 ng/ml measured after 1 hrs by UPLC-MS/MS analysis; type: ADME, cell-free
[12] = Prodrug conversion in Sprague-Dawley rat plasma assessed as triptolide release at 500 ng/ml measured after 1 hrs by UPLC-MS/MS analysis; type: ADME, cell-free
[13] = Microsomal stability in rat liver microsomes assessed as half life; type: ADME, Microsome
[14] = Microsomal stability in rat liver microsomes assessed as intrinsic clearance; type: ADME, Microsome; details: read-out: CLH
[15] = Microsomal stability in rat liver microsomes assessed as hepatic clearance; type: ADME, Microsome
[16] = tested on: THP-1; assay: Antiproliferative activity against human THP-1 cells assessed as inhibition of cell growth measured after 48 hrs by CCK8 assay; type: functional, cell-based; details: THP-1, 48 h
[17] = tested on: MV4-11; assay: Antiproliferative activity against human MV4-11 cells assessed as cell growth inhibition measured after 48 hrs by CCK8 assay; type: functional, cell-based; details: MV4-11, 48 h
[18] = tested on: PBMC; assay: Cytotoxicity against human PBMC cells assessed as cell survial at 30 to 300 nM measured after 48 hrs by CCK8 assay; type: toxicity, cell-based; details: 0.3 µM, dose 30-300 nM
[19] = tested on: MV4-11; assay: Antiproliferative activity against human MV4-11 cells assessed as cell growth inhibition measured after 24 hrs by Edu incorporation assay; type: functional, cell-based
[20] = tested on: THP-1; assay: Antiproliferative activity against human THP-1 cells assessed as cell growth inhibition measured after 24 hrs by Edu incorporation assay; type: functional, cell-based; details: dose 30-120 nM
[21] = tested on: THP-1; assay: Antitumor activity against human THP-1 cells xenografted in BALB/c nude mouse assessed as tumor growth inhibition at 100 microg/kg, ip qd measured every 2 days for 28 days relative to control; type: functional; details: THP-1, 672 h, dose 100 µg/kg, time 28 day, read-out: TGI
[22] = tested on: THP-1; assay: Antitumor activity against human THP-1 cells xenografted in BALB/c nude mouse assessed as complete tumor regression at 300 microg/kg, ip qd measured every 2 days for 16 days; type: functional, organism-based; details: dose 300.0 µg/kg, time 16.0 day
[23] = Toxicity in BALB/c nude mouse xenografted with human THP-1 cells assessed as change in body weight at 0.1 to 1.2 mg/kg, ip qd measured every 2 days for 28 days; type: organism-based; details: in vivo, 672 h, dose 0.1-1.2 mg/kg, time 28 day
[24] = Toxicity in BALB/c nude mouse xenografted with human THP-1 cells assessed as animal death at 2.4 to 4.8 mg/kg, ip qd measured after 2 to 3 days; type: organism-based; details: in vivo, dose lower 2.4 mg/kg, time lower 2 day, dose upper 4.8 mg/kg, time upper 3 day
[25] = tested on: MV4-11; assay: Antitumor activity against human MV4-11 cells xenografted in BALB/c nude mouse assessed as tumor growth inhibition at 25 microg/kg, ip qd measured every 2 days for 28 days relative to control; type: functional; details: MV4-11, 672 h, dose 25 µg/kg, time 28 day, read-out: TGI
[26] = tested on: MV4-11; assay: Antitumor activity against human MV4-11 cells xenografted in BALB/c nude mouse assessed as complete tumor regression at 100 microg/kg, ip qd measured every 2 days for 12 days; type: functional, organism-based; details: dose 100.0 µg/kg, time 12.0 day
[27] = tested on: MV4-11; assay: Antitumor activity against human MV4-11 cells xenografted in ip dosed BALB/c nude mouse assessed as cell growth inhibition by measuring effect on Ki67 protein expression in tumor administered daily and measured after 28 days by immunohistochemical analysis; type: functional, organism-based; details: dose 25-50 µg/kg, time 28.0 day
[28] = tested on: MV4-11; assay: Antitumor activity against human MV4-11 cells xenografted in ip dosed BALB/c nude mouse assessed as induction of apoptosis by measuring increase in cleaved caspase-3 level in tumor administered daily and measured after 28 days by immunohistochemical staining based analysis; type: functional, organism-based; details: dose 25-50 µg/kg, time 28.0 day
[29] = tested on: THP-1; assay: Antitumor activity against human THP-1 cells xenografted in BALB/c nude mouse assessed as cell growth inhibition by measuring effect on Ki67 protein expression in tumor at 0.1 mg/kg, ip administered daily and measured after 28 days by immunohistochemical analysis; type: functional, organism-based; details: time 28.0 day
[30] = tested on: THP-1; assay: Antitumor activity against human THP-1 cells xenografted in BALB/c nude mouse assessed as induction of apoptosis by measuring increase in cleaved caspase-3 level in tumor at 0.1 mg/kg, ip administered daily and measured after 28 days by immunohistochemical staining based analysis; type: functional, organism-based; details: time 28.0 day
[31] = tested on: MV4-11; assay: Antitumor activity against human MV4-11 cells xenografted in BALB/c nude mouse assessed as tumor growth inhibition at 300 microg/kg/day, IG measured everyday for 11 days relative to control; type: functional; details: MV4-11, po, 264 h, at 300 µg/kg/day, time 11 day, read-out: TGI
[32] = Toxicity in BALB/c nude mouse xenografted with human MV4-11 cells assessed as change in body weight at 180 microg/kg/day, IG measured everyday for 11 days; details: in vivo, po, 264 h, dose 180 µg/kg/day, time 11 day
[33] = tested on: MV4-11; assay: Antitumor activity against human MV4-11 cells xenografted in BALB/c nude mouse assessed as tumor growth inhibition at 50 microg/kg, ip administered for 20 days in presence of gilteritinib and measured every 2 days relative to control; type: functional; details: MV4-11, 480 h, dose 50 µg/kg, time 20 day, read-out: TGI
[34] = tested on: MV4-11; assay: Antitumor activity against human MV4-11 cells xenografted in BALB/c nude mouse assessed as cell growth inhibition by measuring effect on Ki67 protein expression in tumor at 50 microg/kg, ip administered for 20 days in presence of gilteritinib by immunohistochemical analysis; type: functional, organism-based; details: dose 50.0 µg/kg, time 20.0 day
[35] = tested on: MV4-11; assay: Antitumor activity against human MV4-11 cells xenografted in BALB/c nude mouse assessed as induction of apoptosis by measuring caspase-3 level in tumor at 50 microg/kg, ip administered for 20 days in presence of gilteritinib by immunohistochemical analysis; type: functional, organism-based; details: dose 50.0 µg/kg, time 20.0 day
[36] = (§1) Prodrug conversion in human plasma assessed as (5bS,6aS,7aR,8R,8aS,9aS,9bS,10bS)-8a-isopropyl-10b-methyl-3-oxo-1,2,3,5,5b,6,6a,8,8a,9a,9b,10b-dodecahydrotris(oxireno [2',3':4b,5;2'',3'':6,7;2''',3''':8a,9]phenanthro[1,2-c]furan-8-yl 2-hydroxyacetate intermediate formation by HPLC analysis; type: ADME, cell-free
[37] = as §1, with “formation measured after 1 hr” for “formation”; type: ADME, cell-free
[38] = tested on: THP-1; assay: Potency index, ratio of test compound IC50 to triptolide IC50 for antiproliferative activity against human THP-1 cells assessed as inhibition of cell growth measured after 48 hrs by CCK8 assay; type: functional
[39] = tested on: MV4-11; assay: Potency index, ratio of test compound IC50 to triptolide IC50 for antiproliferative activity against human MV4-11 cells assessed as inhibition of cell growth measured after 48 hrs by CCK8 assay; type: functional
[40] = Prodrug conversion in Sprague-Dawley rat plasma assessed as triptolide release at 500 ng/ml measured after 1.5 hrs by UPLC-MS/MS analysis; type: ADME, cell-free
[41] = Prodrug conversion in human plasma assessed as triptolide release at 1 mg/ml measured after 1.5 hrs by HPLC analysis; type: ADME, cell-free
[42] = AUC (0 to t) in Sprague-Dawley rat at 1.0 mg/kg, po administered via oral gavage and measured upto 24 hrs by LC-MS/MS analysis; type: ADME, organism-based; parameters: dose 1 mg/kg, time < 24 hrs, route po; details: in vivo
[43] = Tmax in Sprague-Dawley rat at 1.0 mg/kg, po administered via oral gavage and measured upto 24 hrs by LC-MS/MS analysis; type: ADME, organism-based; details: in vivo
[44] = Cmax in Sprague-Dawley rat at 1.0 mg/kg, po administered via oral gavage and measured upto 24 hrs by LC-MS/MS analysis; type: ADME, organism-based; parameters: dose 1 mg/kg, time < 24 hrs, route po; details: in vivo
[45] = tested on: MV4-11; assay: Antitumor activity against human MV4-11 cells xenografted in BALB/c nude mouse assessed as tumor growth inhibition at 180 microg/kg/day, IG measured everyday for 11 days relative to control; type: functional; details: MV4-11, po, 264 h, at 180 µg/kg/day, time 11 day, read-out: TGI

Compound: CC(C)[C@]12O[C@H]1[C@@H]1O[C@]13[C@]1(O[C@H]1C[C@H]1C4=C(CC[C@@]13C)C(=O)OC4)[C@@H]2OCOP(=O)([O-])[O-].[Na+].[Na+] [MINNELIDE]
Drug metabolism [1]: Metabolite_Detected

Compound: CCc1nc(C(N)=O)c(Nc2ccc(N3CCC(N4CCN(C)CC4)CC3)c(OC)c2)nc1NC1CCOCC1 [GILTERITINIB]
inhibition in vivo at 0.5 mg/kg [2]: 48.3%
inhibition in vivo at 1 mg/kg [3]: 72%

Compound: CC(C)[C@]12O[C@H]1[C@@H]1O[C@]13[C@]1(O[C@H]1C[C@H]1C4=C(CC[C@@]13C)C(=O)OC4)[C@@H]2OC(=O)COC(=O)CN1CCOCC1.Cl
remaining at 0 h, 2 mg/ml [4]: 99.4%
solubility [5]: 6130 µg/mL
remaining at 4 h, 2 mg/ml [6]: 99.1%
Drug metabolism [7]: Metabolite_Detected
Drug metabolism [8]: Metabolite_Detected
Drug metabolism [9]: Metabolite_Detected
Drug metabolism [10]: Metabolite_Detected
Drug metabolism [11]: Metabolite_Detected
Drug metabolism [12]: Metabolite_Detected
half-life [13]: 8.64 min
CLint scaled [14]: 288 mL/min/kg
CLhep predicted [15]: 65.6 mL/min/kg
IC50 [16]: 14.8 nM
IC50 [17]: 46 nM
Activity [18]: Non-Toxic
Activity [19]: Dose-Dependent Effect
Activity [20]: Dose-Dependent Effect
inhibition in vivo at 0.1 mg/kg [21]: 93.9%
Activity [22]: Active
Activity [23]: Non-Toxic
Activity [24]: Toxic
inhibition in vivo at 0.025 mg/kg [25]: 54.3%
Activity [26]: Active
Activity [27]: Dose-Dependent Effect
Activity [28]: Dose-Dependent Effect
Activity [29]: Active
Activity [30]: Active
inhibition in vivo at 0.3 mg/kg/day [31]: 93.5%
Activity [32]: Non-Toxic
inhibition in vivo at 0.05 mg/kg [33]: 78.1%
Activity [34]: Active
Activity [35]: Active
Drug metabolism [36]: Metabolite_Detected
Drug metabolism [37]: Metabolite_Notdetected
Ratio IC50 [38]: 2
Ratio IC50 [39]: 2

remaining at 0 h, 2 mg/ml [4]: 96.8%
solubility [5]: 3820 µg/mL
remaining at 4 h, 2 mg/ml [6]: 96.7%
Drug metabolism [7]: Metabolite_Detected
Compound: CC(C)[C@]12O[C@H]1[C@@H]1O[C@]13[C@]1(O[C@H]1C[C@H]1C4=C(CC[C@@]13C)C(=O)OC4)[C@@H]2OC(=O)COC(=O)CN1CCN(C)CC1.Cl

Compound: CC(C)[C@]12O[C@H]1[C@@H]1O[C@]13[C@]1(O[C@H]1C[C@H]1C4=C(CC[C@@]13C)C(=O)OC4)[C@@H]2OC(=O)CCC(=O)[O-].[Na+] [OMTRIPTOLIDE SODIUM]
Drug metabolism [40]: Metabolite_Detected

remaining at 0 h, 2 mg/ml [4]: 95%
solubility [5]: 7490 µg/mL
remaining at 4 h, 2 mg/ml [6]: 94.8%
Drug metabolism [7]: Metabolite_Detected
Drug metabolism [8]: Metabolite_Detected
Drug metabolism [41]: Metabolite_Detected
Compound: CC(C)[C@]12O[C@H]1[C@@H]1O[C@]13[C@]1(O[C@H]1C[C@H]1C4=C(CC[C@@]13C)C(=O)OC4)[C@@H]2OC(=O)CCCOC(=O)CN1CCOCC1.Cl

Compound: CC(C)[C@]12O[C@H]1[C@@H]1O[C@]13[C@]1(O[C@H]1C[C@H]1C4=C(CC[C@@]13C)C(=O)OC4)[C@@H]2O [TRIPTOLIDE]
AUC(0-t) at 24 h [42]: 31.9 ng·h/mL
Tmax [43]: 26.4 min
Cmax [44]: 15.9 ng/mL
IC50 [16]: 7.04 nM
IC50 [17]: 12 nM
inhibition in vivo at 0.18 mg/kg/day [45]: 91.5%
